{"source": "ChEMBL document CHEMBL1949505", "about": "“Total synthesis and structure-activity relationships of new echinocandin-like antifungal cyclolipohexapeptides” (2012)", "assay_type_in_all_cases": "functional", "key": {"Candida parapsilosis": {"system": "Candida parapsilosis", "experiment": "Antifungal activity against Candida parapsilosis after 24 hrs by serial dilution method", "details": "Lodderomyces parapsilosis"}, "Candida tropicalis": {"system": "Candida tropicalis", "experiment": "Antifungal activity against Candida tropicalis after 24 hrs by serial dilution method"}, "Trichophyton rubrum": {"system": "Trichophyton rubrum", "experiment": "Antifungal activity against Trichophyton rubrum after 7 days by serial dilution method", "details": "168 h"}, "Aspergillus fumigatus": {"system": "Aspergillus fumigatus", "experiment": "Antifungal activity against Aspergillus fumigatus after 7 days by serial dilution method", "details": "168 h"}, "Pichia kudriavzevii": {"system": "Pichia kudriavzevii", "experiment": "Antifungal activity against Candida krusei after 24 hrs by serial dilution method"}, "Candida albicans": {"system": "Candida albicans", "experiment": "Antifungal activity against Candida albicans after 24 hrs by serial dilution method"}, "Cryptococcus neoformans": {"system": "Cryptococcus neoformans", "experiment": "Antifungal activity against Cryptococcus neoformans after 72 hrs by serial dilution method"}}, "note": "Bridge positions count the residues as written; N and C are the ends. Square brackets hold non-standard residues; d marks the D form. Peptide text beside a SMILES is read from it. * marks the point of attachment. X2 = CCCCCCCOc1ccc(-c2ccc(-c3ccc(C(=O)*)cc3)cc2)cc1; X1 = CCCOc1ccc(-c2ccc(-c3ccc(C(=O)*)cc3)cc2)cc1; Pro(4S-NH2) = N[C@@H]1CN[C@H](C(=O)O)C1; hTyr = N[C@@H](CCc1ccc(O)cc1)C(=O)O; Orn = NCCC[C@H](N)C(=O)O", "data": [{"smiles": "CCCCCOc1ccc2cc(C(=O)N[C@H]3CCCNC(=O)[C@@H]4C[C@H](N)CN4C(=O)[C@H]([C@H](C)O)NC(=O)[C@H](CCc4ccc(O)cc4)NC(=O)[C@@H]4C[C@H](N)CN4C(=O)[C@H]([C@@H](C)O)NC3=O)ccc2c1.Cc1ccc(S(=O)(=O)O)cc1", "values": [{"measurement": "MIC80", "setting": "Candida parapsilosis", "result": 32, "unit": "µg/mL"}, {"measurement": "MIC80", "setting": "Candida tropicalis", "result": "> 64", "unit": "µg/mL"}, {"measurement": "MIC80", "setting": "Trichophyton rubrum", "result": "> 64", "unit": "µg/mL"}, {"measurement": "MIC80", "setting": "Aspergillus fumigatus", "result": "> 64", "unit": "µg/mL"}, {"measurement": "MIC80", "setting": "Pichia kudriavzevii", "result": 8, "unit": "µg/mL"}, {"measurement": "MIC80", "setting": "Candida albicans", "result": 2, "unit": "µg/mL"}, {"measurement": "MIC80", "setting": "Cryptococcus neoformans", "result": "> 64", "unit": "µg/mL"}]}, {"smiles": "CCCCCCOc1ccc2cc(C(=O)N[C@H]3CCCNC(=O)[C@@H]4C[C@H](N)CN4C(=O)[C@H]([C@H](C)O)NC(=O)[C@H](CCc4ccc(O)cc4)NC(=O)[C@@H]4C[C@H](N)CN4C(=O)[C@H]([C@@H](C)O)NC3=O)ccc2c1.Cc1ccc(S(=O)(=O)O)cc1", "values": [{"measurement": "MIC80", "setting": "Candida parapsilosis", "result": 32, "unit": "µg/mL"}, {"measurement": "MIC80", "setting": "Candida tropicalis", "result": 64, "unit": "µg/mL"}, {"measurement": "MIC80", "setting": "Trichophyton rubrum", "result": "> 64", "unit": "µg/mL"}, {"measurement": "MIC80", "setting": "Aspergillus fumigatus", "result": "> 64", "unit": "µg/mL"}, {"measurement": "MIC80", "setting": "Pichia kudriavzevii", "result": 2, "unit": "µg/mL"}, {"measurement": "MIC80", "setting": "Candida albicans", "result": 2, "unit": "µg/mL"}, {"measurement": "MIC80", "setting": "Cryptococcus neoformans", "result": "> 64", "unit": "µg/mL"}]}, {"smiles": "CCCCCCCOc1ccc2cc(C(=O)N[C@H]3CCCNC(=O)[C@@H]4C[C@H](N)CN4C(=O)[C@H]([C@H](C)O)NC(=O)[C@H](CCc4ccc(O)cc4)NC(=O)[C@@H]4C[C@H](N)CN4C(=O)[C@H]([C@@H](C)O)NC3=O)ccc2c1.Cc1ccc(S(=O)(=O)O)cc1", "values": [{"measurement": "MIC80", "setting": "Candida parapsilosis", "result": 32, "unit": "µg/mL"}, {"measurement": "MIC80", "setting": "Candida tropicalis", "result": 64, "unit": "µg/mL"}, {"measurement": "MIC80", "setting": "Trichophyton rubrum", "result": "> 64", "unit": "µg/mL"}, {"measurement": "MIC80", "setting": "Aspergillus fumigatus", "result": "> 64", "unit": "µg/mL"}, {"measurement": "MIC80", "setting": "Pichia kudriavzevii", "result": 8, "unit": "µg/mL"}, {"measurement": "MIC80", "setting": "Candida albicans", "result": 2, "unit": "µg/mL"}, {"measurement": "MIC80", "setting": "Cryptococcus neoformans", "result": "> 64", "unit": "µg/mL"}]}, {"smiles": "CCCCCCCCOc1ccc2cc(C(=O)N[C@H]3CCCNC(=O)[C@@H]4C[C@H](N)CN4C(=O)[C@H]([C@H](C)O)NC(=O)[C@H](CCc4ccc(O)cc4)NC(=O)[C@@H]4C[C@H](N)CN4C(=O)[C@H]([C@@H](C)O)NC3=O)ccc2c1.Cc1ccc(S(=O)(=O)O)cc1", "values": [{"measurement": "MIC80", "setting": "Candida parapsilosis", "result": 32, "unit": "µg/mL"}, {"measurement": "MIC80", "setting": "Candida tropicalis", "result": 32, "unit": "µg/mL"}, {"measurement": "MIC80", "setting": "Trichophyton rubrum", "result": "> 64", "unit": "µg/mL"}, {"measurement": "MIC80", "setting": "Aspergillus fumigatus", "result": "> 64", "unit": "µg/mL"}, {"measurement": "MIC80", "setting": "Pichia kudriavzevii", "result": 8, "unit": "µg/mL"}, {"measurement": "MIC80", "setting": "Candida albicans", "result": 2, "unit": "µg/mL"}, {"measurement": "MIC80", "setting": "Cryptococcus neoformans", "result": "> 64", "unit": "µg/mL"}]}, {"smiles": "CCCCCCCOc1ccc2cc(C(=O)N[C@H]3CCCNC(=O)[C@@H]4C[C@H](N)CN4C(=O)[C@H]([C@H](C)O)NC(=O)[C@H](CCc4ccc(O)cc4)NC(=O)[C@@H]4C[C@H](N)CN4C(=O)[C@H](CO)NC3=O)ccc2c1.Cc1ccc(S(=O)(=O)O)cc1", "values": [{"measurement": "MIC80", "setting": "Candida parapsilosis", "result": 32, "unit": "µg/mL"}, {"measurement": "MIC80", "setting": "Candida tropicalis", "result": 32, "unit": "µg/mL"}, {"measurement": "MIC80", "setting": "Trichophyton rubrum", "result": 64, "unit": "µg/mL"}, {"measurement": "MIC80", "setting": "Aspergillus fumigatus", "result": "> 64", "unit": "µg/mL"}, {"measurement": "MIC80", "setting": "Pichia kudriavzevii", "result": 8, "unit": "µg/mL"}, {"measurement": "MIC80", "setting": "Candida albicans", "result": "> 64", "unit": "µg/mL"}, {"measurement": "MIC80", "setting": "Cryptococcus neoformans", "result": "> 64", "unit": "µg/mL"}]}, {"smiles": "CCCOc1ccc(-c2ccc(-c3ccc(C(=O)N[C@H]4CCCNC(=O)[C@@H]5C[C@H](N)CN5C(=O)[C@H](CCCCN)NC(=O)[C@H](CCc5ccc(O)cc5)NC(=O)[C@@H]5CCCN5C(=O)[C@H]([C@@H](C)O)NC4=O)cc3)cc2)cc1.Cc1ccc(S(=O)(=O)O)cc1", "note": "(X1-[Orn]TP[hTyr]K[Pro(4S-NH2)]; lactam 1-C)", "values": [{"measurement": "MIC80", "setting": "Candida parapsilosis", "result": 2, "unit": "µg/mL"}, {"measurement": "MIC80", "setting": "Candida tropicalis", "result": 16, "unit": "µg/mL"}, {"measurement": "MIC80", "setting": "Trichophyton rubrum", "result": 64, "unit": "µg/mL"}, {"measurement": "MIC80", "setting": "Aspergillus fumigatus", "result": 1, "unit": "µg/mL"}, {"measurement": "MIC80", "setting": "Pichia kudriavzevii", "result": 1, "unit": "µg/mL"}, {"measurement": "MIC80", "setting": "Candida albicans", "result": 0.25, "unit": "µg/mL"}, {"measurement": "MIC80", "setting": "Cryptococcus neoformans", "result": 16, "unit": "µg/mL"}]}, {"smiles": "CCCOc1ccc(-c2ccc(-c3ccc(C(=O)N[C@H]4CCCNC(=O)[C@@H]5C[C@H](N)CN5C(=O)[C@H](CCCCN)NC(=O)[C@H](CCc5ccc(O)cc5)NC(=O)[C@@H]5CCCN5C(=O)[C@H](C(C)C)NC4=O)cc3)cc2)cc1.Cc1ccc(S(=O)(=O)O)cc1", "note": "(X1-[Orn]VP[hTyr]K[Pro(4S-NH2)]; lactam 1-C)", "values": [{"measurement": "MIC80", "setting": "Candida parapsilosis", "result": 4, "unit": "µg/mL"}, {"measurement": "MIC80", "setting": "Candida tropicalis", "result": 16, "unit": "µg/mL"}, {"measurement": "MIC80", "setting": "Trichophyton rubrum", "result": 16, "unit": "µg/mL"}, {"measurement": "MIC80", "setting": "Aspergillus fumigatus", "result": 0.25, "unit": "µg/mL"}, {"measurement": "MIC80", "setting": "Pichia kudriavzevii", "result": 2, "unit": "µg/mL"}, {"measurement": "MIC80", "setting": "Candida albicans", "result": 0.5, "unit": "µg/mL"}, {"measurement": "MIC80", "setting": "Cryptococcus neoformans", "result": 32, "unit": "µg/mL"}]}, {"smiles": "CCCOc1ccc(-c2ccc(-c3ccc(C(=O)N[C@H]4CCCNC(=O)[C@@H]5C[C@H](N)CN5C(=O)[C@H](CCCN)NC(=O)[C@H](CCc5ccc(O)cc5)NC(=O)[C@@H]5CCCN5C(=O)[C@H](C(C)C)NC4=O)cc3)cc2)cc1.Cc1ccc(S(=O)(=O)O)cc1", "note": "(X1-[Orn]VP[hTyr][Orn][Pro(4S-NH2)]; lactam 1-C)", "values": [{"measurement": "MIC80", "setting": "Candida parapsilosis", "result": 4, "unit": "µg/mL"}, {"measurement": "MIC80", "setting": "Candida tropicalis", "result": 8, "unit": "µg/mL"}, {"measurement": "MIC80", "setting": "Trichophyton rubrum", "result": 16, "unit": "µg/mL"}, {"measurement": "MIC80", "setting": "Aspergillus fumigatus", "result": 0.5, "unit": "µg/mL"}, {"measurement": "MIC80", "setting": "Pichia kudriavzevii", "result": 2, "unit": "µg/mL"}, {"measurement": "MIC80", "setting": "Candida albicans", "result": 0.5, "unit": "µg/mL"}, {"measurement": "MIC80", "setting": "Cryptococcus neoformans", "result": 32, "unit": "µg/mL"}]}, {"smiles": "CCCCCCCOc1ccc(-c2ccc(-c3ccc(C(=O)N[C@H]4CCCNC(=O)[C@@H]5C[C@H](N)CN5C(=O)[C@H](CCCCN)NC(=O)[C@H](CCc5ccc(O)cc5)NC(=O)[C@@H]5CCCN5C(=O)[C@H]([C@@H](C)O)NC4=O)cc3)cc2)cc1.Cc1ccc(S(=O)(=O)O)cc1", "note": "(X2-[Orn]TP[hTyr]K[Pro(4S-NH2)]; lactam 1-C)", "values": [{"measurement": "MIC80", "setting": "Candida parapsilosis", "result": 2, "unit": "µg/mL"}, {"measurement": "MIC80", "setting": "Candida tropicalis", "result": 8, "unit": "µg/mL"}, {"measurement": "MIC80", "setting": "Trichophyton rubrum", "result": 16, "unit": "µg/mL"}, {"measurement": "MIC80", "setting": "Aspergillus fumigatus", "result": 1, "unit": "µg/mL"}, {"measurement": "MIC80", "setting": "Pichia kudriavzevii", "result": 1, "unit": "µg/mL"}, {"measurement": "MIC80", "setting": "Candida albicans", "result": 0.25, "unit": "µg/mL"}, {"measurement": "MIC80", "setting": "Cryptococcus neoformans", "result": 16, "unit": "µg/mL"}]}]}
